Patent publication EP4772509A1, “KINESIN KIF18A INHIBITOR, AND APPLICATION THEREOF” (Shanghai Apeiron Therapeutics Company Limited, priority 2023, dated 2025)
Like-named read-outs stand apart in the source and are kept apart here.

Columns and labels:
[1] = target: T1, Human KIF18A (amino acid sequence 1-417) (Homo sapiens, UniProt Q8NI77); test: Enzymatic activity test (ADP-Glo, microtubule-stimulated ATPase); format: biochemical; conditions: 60 µg/mL microtubules, 25 µM ATP, 2.5 nM KIF18A protein, 120 min at ambient temperature, chemiluminescence; read-out: KIF18A IC50
T1 construct: purchased Viva Biotech (Shanghai) Ltd
T1 sequence (Q8NI77 1-417): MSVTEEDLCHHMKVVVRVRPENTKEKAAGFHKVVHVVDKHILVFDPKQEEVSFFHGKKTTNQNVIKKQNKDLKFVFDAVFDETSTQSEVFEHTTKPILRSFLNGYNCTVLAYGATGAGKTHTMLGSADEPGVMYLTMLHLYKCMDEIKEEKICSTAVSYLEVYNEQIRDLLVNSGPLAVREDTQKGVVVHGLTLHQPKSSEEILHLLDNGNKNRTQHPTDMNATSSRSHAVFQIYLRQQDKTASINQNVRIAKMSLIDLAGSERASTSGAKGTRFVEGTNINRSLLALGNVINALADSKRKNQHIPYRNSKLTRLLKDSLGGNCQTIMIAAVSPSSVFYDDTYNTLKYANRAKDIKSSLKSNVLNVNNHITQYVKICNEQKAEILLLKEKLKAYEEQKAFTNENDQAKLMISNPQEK
Method: Materials: Human KIF18A (amino acid sequence 1-417) was purchased from Viva Biotech (Shanghai) Ltd.; the ADP-Glo™ protein kinase kit was acquired from Promega, USA; tubulin was sourced from Cytoskeleton, USA; and the 384-well assay plate and Envision multifunctional microplate reader were obtained from PerkinElmer, USA.
Enzymatic Activity Test: The compound powder was dissolved in DMSO to prepare a stock solution of 10 mM. Then gradient dilution was performed for the compounds in the microplate to achieve a final concentration of 0-10 µM. Then, 2.5 µL each of tubulin, compound, ATP, and KIF18A protein were added to the microplate in sequence for reaction at ambient temperature for 120 min. The final concentrations in the enzyme reaction were 60 µg/mL for microtubules, 25 µM for ATP, and 2.5 nM for KIF18A protein. After the enzyme reaction, 10 µL of ADP-GLO reaction reagent was added to each well and incubated at room temperature for 30 min. After that, 20 µL of detection reagent was added to each well and incubated at room temperature for 30 min in the dark. Finally, chemiluminescence detection was performed using the PerkinElmer Envision.

HT29 cells = test: CyQuant cell proliferation activity test; format: cell-based; conditions: HT29 at 2000 cells per well, 3 days, 0.2% DMSO, XLFIT
Method: Materials and Cells: HT29 cells were purchased from Nanjing Cobioer Biosciences Co., Ltd.; RPMI-1640 medium, fetal bovine serum, Trypsin-EDTA (0.25%), 96-well plates, and CyQuant reagents were purchased from ThermoFisher (USA); DMSO was purchased from SIGMA (USA).
Cell Culture: HT29 cells were cultured with RPMI-1640 containing 10% fetal bovine serum under the condition of 37°C and 5% CO2. Only cells in the logarithmic growth phase could be used for the test.
Cell Proliferation Activity Test: CyQuant reagent was used to detect the proliferation inhibitory activity of compounds on HT29 cells. The cell density was adjusted, and 100 µL per well was inoculated into a 96-well plate (HT29 at 2000 cells per well), then incubated overnight at 37°C and 5% CO2. Add compounds of various target concentrations (initial concentration of 3000 nM, 3-fold dilution, 9 concentration gradients), and make the DMSO content 0.2%. The cell plate was incubated at 37°C in 5% CO2 for 3 days. CyQuant reagent was added and incubated for 1 h. The plates were read by Envision, and IC50 was calculated using XLFIT.

OVCAR3 cells = test: Cell proliferation activity test (CyQUANT Direct); format: cell-based; conditions: 3 days, 0.2% DMSO, CyQUANT fluorescence
Method: Materials and Cells: OVCAR3 cells were purchased from Nanjing Cobioer Biosciences Co., Ltd. RPMI-1640 medium, fetal bovine serum, and the CyQUANT Direct Cell Proliferation Assay kit were purchased from Thermo Fisher Scientific, USA; 96-well cell culture plates were sourced from Corning, USA.
Cell Culture: OVCAR3 cells were cultured with RPMI-1640 medium containing 10% fetal bovine serum and incubated in a 5% CO2 incubator at 37°C. Only cells in the logarithmic growth phase could be used for the test.
OVCAR3 cells were inoculated into a 96-well cell culture plate at 90 µL per well and incubated overnight in a 5% CO2 incubator at 37°C. The compound powder was dissolved in DMSO to prepare a stock solution of 10 mM. Then gradient dilution was performed for the compounds in the microplate to achieve a final concentration of 0-10 µM. 10 µL of cell culture medium containing compounds was added to each well to make the final DMSO content 0.2%. The cell plates were incubated in a 5% CO2 incubator at 37°C for 3 days. 100 µL of CyQUANT detection reagent was added to each well, reacted at 37°C for 60 min, and fluorescence detection was performed using the PerkinElmer Envision.

Row | Compound | IC50 [1] | IC50 (OVCAR3 cells) | IC50 (HT29 cells; Homo sapiens, HT-29, 72 h) | IC50 (OVCAR3 cells; Homo sapiens, OVCAR-3, 72 h) | IC50 (HT29 cells; read-out: HT-29 IC50)
1 | Cc1cc2nc(n1)N1CCC(F)(F)C(/C=C/CC3CCN(CC3)c3cc(NS(=O)(=O)CCO)c4ccccc4c3C(=O)N2)C1 (single isomer, unassigned) [Example 1C, (trans)-N-(1^4,1^4-difluoro-2^6-methyl-4-oxo-3-aza-2(2,4)-pyrimidin-1(1,3),6(1,4)-dipiperidin-5(1,2)-naphthacyclonon-8-en-5 ^4-yl)-2-hydroxyethane-1-sulfonamide] | 1060 nM | 1020 nM | – | – | 1020 nM
2 | Cc1cc2nc(n1)N1CCC(F)(F)C(C=CCC3CCN(CC3)c3cc(NS(C)(=O)=O)c4c(c3C(=O)N2)CCC4=O)C1 (stereo not drawn) [Example 19, N-(1^4,1^4-difluoro-2^6-methyl-5^1,4-dioxo-5^2,5^3-dihydro-5^1H-3-aza-2(2,4)-pyrimidin-1(1,3),6(1,4)-dipiperidin-5(4,5)-indenoheterocyclonon-8-en-5^7-yl)-methanesulfonamide] | 73 nM | 52 nM | – | – | 48 nM
3 | Cc1cc2nc(n1)N1CCC(F)(F)C(CCCc3ccc(nc3)-c3cc(NS(=O)(=O)CCO)ccc3C(=O)N2)C1 (stereo not drawn) [Example 49, N-(1^4,1^4-difluoro-2^6-methyl-4-oxo-3-aza-2(2,4)-pyrimidin-6(2,5)-pyridin-1(1,3)-piperidin-5(1,2)-phenylheterocyclononane-5^4-yl)-2-hydroxyethane-1-sulfonamide] | 187 nM | – | 1310 nM | 1080 nM | –
4 | Cc1cc2nc(n1)N1CCC(F)(F)C(/C=C\CC3CCN(CC3)c3cc(NS(=O)(=O)C(C)(C)CO)c4c(c3C(=O)N2)CCC4=O)C1 (stereo not drawn) [Example 12, (Z)-N-(1^4,1^4-difluoro-2^6-methyl-5^1,4-dioxo-5^2,5^3-dihydro-5^1hydro-3-aza-2(2,4)-pyrimidin-1(1,3),6(1,4)-dipiperidin-5(4, 5)-indenocyclonofin-8-en-5^7-yl)-1-hydroxy-2-methylpropane-2-sulfonamide] | 172 nM | – | 165 nM | 96 nM | –
5 | Cc1cc2nc(n1)N1CCC(F)(F)C(/C=C\c3csc(c3)-c3cc(NS(=O)(=O)CCO)ccc3C(=O)N2)C1 (stereo not drawn) [Example 67, N-(2^4,2^4-difluoro-1^6-methyl-7-oxo-8-aza-1(2,4)-pyrimidin-2(1,3)-piperidin-5(2,4)-thiophene-6(1,2)-benzeneheterocyclooct-3-en-6^5-yl)-2-hydroxyethane-1-sulfonamide] | 86 nM | – | – | 481 nM | –
6 | Cc1cc2nc(n1)N1CCC(F)(F)C(CC=Cc3ccc(nc3)-c3cc(NS(=O)(=O)CCO)ccc3C(=O)N2)C1 (stereo not drawn) [Example 48, N-(1^4,1^4-difluoro-2^6-methyl-4-oxo-3-aza-2(2,4)-pyrimidin-6(2,5)-pyridin-1(1,3)-piperidin-5(1,2)-phenylheterocyclonon-7-en-5^4-yl)-2-hydroxyethane-1-sulfonamide] | – | – | 1560 nM | 1210 nM | –
7 | Cc1cc2nc(n1)N1CCC(F)(F)C(CCCc3ccc(cc3)-c3cc(NS(=O)(=O)CCO)ccc3C(=O)N2)C1 (single isomer, unassigned) [Example 46B, N-(1^4,1^4-difluoro-2^6-methyl-4-oxo-3-aza-2(2,4)-pyrimidin-1(1,3)-piperidin-5(1,2),6(1,4)-diphenylheterocyclononane-5^4-yl)-2-hydroxyethane-1-sulfonamide] | 57 nM | – | – | – | 36 nM
8 | Cc1cc2nc(n1)N1CCC(F)=C(/C=C\CC3CCN(CC3)c3cc(NS(=O)(=O)CCO)c4c(c3C(=O)N2)CCC4=O)C1 [Example 3, N-(1^4-fluoro-2^6-methyl-5^1,4-dioxo-11,1^2,1^3,1^6,5^2,5^3-hexahydro-5^1H-3-aza-^2(2,4)-pyrimidin-1(1,5)-pyridin-6(1,4)-piperidin-5(4,5)-indenoheterononane-8-en-5^7-yl)-2-hydroxyethane-1-sulfonamide] | 566 nM | – | – | 1130 nM | –
9 | Cc1cc2nc(n1)N1CCC(F)(F)C(/C=C/CC3CCN(CC3)c3cc(NS(=O)(=O)CCO)c(C(=O)N(C)C)cc3-n3cc-2nn3)C1 (stereo not drawn) [Example 93, (3^4Z,7E)-1^4,1^4-difluoro-4^4-((2-hydroxyethyl)sulfonamido)-2^6-methyl-3^1H-2(2,4)-pyrimidin-1(1,3),5(1,4)-dipiperidin-3(4,1)-triazole-4(1,2)-benzocyclooct-7-en-4^5carboxamide] | – | – | 194 nM | 91 nM | –
10 | Cc1cc2nc(n1)N1CCC(F)=C(/C=C\CC3CCN(CC3)c3cc(NS(=O)(=O)CCO)ccc3-n3cc-2nn3)C1 [Example 82, N-((3^4Z,7Z)-1^4-fluoro-2^6-inethyl-1^1,1^2,1^3,1^6-tetrahydro-3^1H-2(2,4)-pyrimidin-1(1,5)-pyridin-5(1,4)-piperidin-3(4,1)-triazole-4(1,2)-benzylcyclooct-7-en-4^4-yl)-2-hydroxyethane-1-sulfonamide] | 1020 nM | – | – | 1280 nM | –

Further lines, with some results ahead:

Row | IC50 [1] | IC50 (OVCAR3 cells) | IC50 (HT29 cells; Homo sapiens, HT-29, 72 h) | IC50 (OVCAR3 cells; Homo sapiens, OVCAR-3, 72 h) | Compound | IC50 (HT29 cells; read-out: HT-29 IC50)
11 | 405 nM | 173 nM | – | – | Methyl(3^4Z,7Z)-1^4,1^4-difluoro-4^4-((2-hydroxyethyl)sulfonamido)-2^6-methyl 3^1H-2(2,4)-pyrimidin-1(1,3),5(1,4)-dipiperidin-3(4,1)-triazole-4(1,2)-benzocyclooct-7-en-4^5 carboxylate [Example 92B] | 164 nM
12 | 309 nM | 26 nM | – | – | Cc1cc2nc(n1)N1CCC(F)(F)C(/C=C\CC3CCN(CC3)c3cc(NS(=O)(=O)CCO)ccc3-c3cn-2nn3)C1 (single isomer, unassigned) [Example 84A, N-((3^4Z,7Z)-1^4,1^4-difluoro-2^6-methyl-3^1H-2(2,4)-pyrimidin-1(1,3),5(1,4)-dipiperidin-3(1,4)-triazole-4(1,2)-benzocyclooct-7-en-4^4-yl)-2-hydroxyethane-1-sulfonamide] | –
13 | 258 nM | 472 nM | – | – | Cc1cc2nc(n1)N1CCC(F)(F)C(/C=C\CC3CCN(CC3)c3cc(NS(=O)(=O)CCO)ccc3-c3cn-2nn3)C1 (single isomer, unassigned) [Example 84B, N-((3^4Z,7Z)-1^4,1^4-difluoro-2^6-methyl-3^1H-2(2,4)-pyrimidin-1(1,3),5(1,4)-dipiperidin-3(1,4)-triazole-4(1,2)-benzocyclooct-7-en-4^4-yl)-2-hydroxyethane-1-sulfonamide] | –
14 | 284 nM | > 3000 nM | – | – | Cc1cc2nc(n1)C1CN(/C=C/CC3CCN(CC3)c3cc(NS(=O)(=O)CCO)ccc3-c3cn-2nn3)CCC1(F)F (single isomer, unassigned) [Example 84D, N-((3^4Z,7E)-1^4,1^4-difluoro-2^6-methyl-3^1H-2(2,4)-pyrimidin-1(1,3),5(1,4)-dipiperidin-3(1,4)-triazole-4(1,2)-benzocyclooct-7-en-4^4-yl)-2-hydroxyethane-1-sulfonamide] | –
